Results as given in patent publication US20230348369A1 (Cytokinetics, Inc., priority 2020, published 2023).
Where two headings read alike, the source gives them in different places.

Molecular target: human NAMPT (Homo sapiens, UniProt P43490)
Test: Human recombinant enzyme assay (NMN fluorescence biochemical assay, activation of NAMPT)
Method in brief: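 Activation of recombinant human NAMPT (6 nM) with 2.5 mM ATP, 20 μM PRPP and 150 μM nicotinamide in 50 mM HEPES pH 7.2, 1 mM DTT, 1 mM CHAPS, 50 mM NaCl, 100 mM MgCl2; 60 min, ambient temperature. NMN formed was derivatized with acetophenone/KOH/formic acid, fluorescence read at 355/460 nm after 40 min.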

[1] = Table A, human recombinant NAMPT, NMN formation, 60 min
[2] = Table A, human recombinant NAMPT, NMN formation, 60 min, read-out: EC50 Human

Chain of human NAMPT (P43490 whole entry): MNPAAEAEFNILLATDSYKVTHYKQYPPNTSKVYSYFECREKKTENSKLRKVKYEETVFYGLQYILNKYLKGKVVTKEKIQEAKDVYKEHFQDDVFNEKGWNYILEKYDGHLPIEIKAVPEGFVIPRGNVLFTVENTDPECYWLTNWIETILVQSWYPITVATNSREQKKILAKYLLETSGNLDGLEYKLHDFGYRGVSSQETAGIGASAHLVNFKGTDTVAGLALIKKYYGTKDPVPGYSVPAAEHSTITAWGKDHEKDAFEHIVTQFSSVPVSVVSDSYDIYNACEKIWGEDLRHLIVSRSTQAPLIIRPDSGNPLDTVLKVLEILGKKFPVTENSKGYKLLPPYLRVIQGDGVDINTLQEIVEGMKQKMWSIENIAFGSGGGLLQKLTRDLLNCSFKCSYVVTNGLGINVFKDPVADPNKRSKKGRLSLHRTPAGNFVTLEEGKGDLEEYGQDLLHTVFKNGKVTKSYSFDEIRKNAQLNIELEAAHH

Row | SMILES | AC1.4 Human [1] [µM] | EC50 [2] [µM] | EC50 (read-out: EC50 Human, Table A, human recombinant NAMPT, NMN formation, 60 min) [µM] | EC50 [µM]
1 | O=C(NCc1ccc(Cl)cc1)N[C@H]1C[C@]2(CCN(C(=O)c3ccc(F)cc3)C2)C1 [Compound 167, 1-(4-chlorobenzyl)-3-((2r,4s)-6-(4-fluorobenzoyl)-6-azaspiro[3.4]octan-2-yl)urea] | 11.8 | 27.5 | – | –
2 | COC(=O)C1CC2(CC(NC(=O)NCc3ccc(Cl)cc3)C2)C1 (stereo not shown) [Compound 168, methyl 6-(3-(4-chlorobenzyl)ureido)spiro[3.3]heptane-2-carboxylate] | 9.5 | – | 39.3 | –
3 | CCc1cccc(C(=O)N2CC3(CC(NC(=O)NCc4ccc(OC)cc4)C3)C2)c1 [Compound 172, 1-(2-(3-ethylbenzoyl)-2-azaspiro[3.3]heptan-6-yl)-3-(4-methoxybenzyl)urea] | 1.9 | – | – | 22.9
4 | COc1ccc(CNC(=O)NC2CC3(C2)CN(C(=O)c2cccc(C(C)(C)O)c2)C3)cc1 [Compound 175, 1-(2-(3-(2-hydroxypropan-2-yl)benzoyl)-2-azaspiro[3.3]heptan-6-yl)-3-(4-methoxybenzyl)urea] | 5.5 | 55.1 | – | –
5 | COc1ccc(CNC(=O)NC2CC3(C2)CN(C(=O)c2cccc(O)c2)C3)cc1 [Compound 177, 1-(2-(3-hydroxybenzoyl)-2-azaspiro[3.3]heptan-6-yl)-3-(4-methoxybenzyl)urea] | 2.8 | – | – | 11.2
6 | COc1ccc(CNC(=O)NC2CC3(C2)CN(C(=O)c2cccc(N(C)C)c2)C3)cc1 [Compound 178, 1-(2-(3-(dimethylamino)benzoyl)-2-azaspiro[3.3]heptan-6-yl)-3-(4-methoxybenzyl)urea] | 3.1 | 21.4 | – | –
7 | COc1ccc(CNC(=O)NC2CC3(C2)CN(C(=O)c2cccc(N4CCCC4)c2)C3)cc1 [Compound 179, 1-(4-methoxybenzyl)-3-(2-(3-(pyrrolidin-1-yl)benzoyl)-2-azaspiro[3.3]heptan-6-yl)urea] | 0.8 | – | – | 12.4
8 | COc1ccc(CNC(=O)NC2CC3(C2)CN(C(=O)c2cccc(S(C)(=O)=O)c2)C3)cc1 [Compound 180, 1-(4-methoxybenzyl)-3-(2-(3-(methylsulfonyl)benzoyl)-2-azaspiro[3.3]heptan-6-yl)urea] | 7.8 | 37.6 | – | –
9 | COC(=O)c1cccc(C(=O)N2CC3(CC(NC(=O)NCc4ccc(OC)cc4)C3)C2)c1 [Compound 181, methyl 3-(6-(3-(4-methoxybenzyl)ureido)-2-azaspiro[3.3]heptane-2-carbonyl)benzoate] | 3.0 | 29.7 | – | –
10 | COc1ccc(CNC(=O)NC2CC3(C2)CN(C(=O)c2cccc(N4CCCC4=O)c2)C3)cc1 [Compound 188, 1-(4-methoxybenzyl)-3-(2-(3-(2-oxopyrrolidin-1-yl)benzoyl)-2-azaspiro[3.3]heptan-6-yl)urea] | 0.9 | 13.4 | – | –
11 | COc1ccc(CNC(=O)NC2CC3(C2)CN(C(=O)c2cccc(-n4cccc4)c2)C3)cc1 [Compound 189, 1-(2-(3-(1H-pyrrol-1-yl)benzoyl)-2-azaspiro[3.3]heptan-6-yl)-3-(4-methoxybenzyl)urea] | 1.4 | 21.3 | – | –
12 | COc1ccc(CNC(=O)NC2CC3(C2)CN(C(=O)c2cccc(N4CCCCC4)c2)C3)cc1 [Compound 190, 1-(4-methoxybenzyl)-3-(2-(3-(piperidin-1-yl)benzoyl)-2-azaspiro[3.3]heptan-6-yl)urea] | 1.8 | 34 | – | –
13 | COc1cccc(C(=O)NC2CC3(CC(NC(=O)NCc4ccc(Cl)cc4)C3)C2)c1 (stereo not shown) [Compound 194, N-(6-(3-(4-chlorobenzyl)ureido)spiro[3.3]heptan-2-yl)-3-methoxybenzamide] | 8.8 | 5.9 | – | –
14 | Cc1ccncc1C(=O)NC1CC2(CC(NC(=O)NCc3ccc(Cl)cc3)C2)C1 (stereo not shown) [Compound 205, N-(6-(3-(4-chlorobenzyl)ureido)spiro[3.3]heptan-2-yl)-4-methylnicotinamide] | 10.0 | 23.6 | – | –
15 | Cc1ccc(C(=O)N2CC3(CC(NC(=O)NCc4ccc(F)cc4)C3)C2)cc1 [Compound 207, 1-(4-fluorobenzyl)-3-(2-(4-methylbenzoyl)-2-azaspiro[3.3]heptan-6-yl)urea] | 13.7 | 6.6 | – | –

Continued by falling EC50 [2], values first:

Row | AC1.4 Human [1] [µM] | EC50 [2] [µM] | SMILES | EC50 (read-out: EC50 Human, Table A, human recombinant NAMPT, NMN formation, 60 min) [µM] | EC50 [µM]
16 | 11.2 | 56 | Cc1cccc(N2CC[C@]3(C2)C[C@@H](NC(=O)NCc2ccc(Cl)cc2)C3)n1 [Compound 183, 1-(4-chlorobenzyl)-3-((2r,4s)-6-(6-methylpyridin-2-yl)-6-azaspiro[3.4]octan-2-yl)urea] | – | –
17 | 16.0 | 53.4 | Cc1cc(C(=O)NC2CC3(CC(NC(=O)NCc4ccc(Cl)cc4)C3)C2)ccn1 (stereo not shown) [Compound 186, N-(6-(3-(4-chlorobenzyl)ureido)spiro[3.3]heptan-2-yl)-2-methylisonicotinamide] | – | –
18 | 12.1 | 52.8 | Cc1ccc(C(=O)NC2CC3(CC(NC(=O)NCc4ccc(Cl)cc4)C3)C2)cn1 (stereo not shown) [Compound 192, N-(6-(3-(4-chlorobenzyl)ureido)spiro[3.3]heptan-2-yl)-6-methylnicotinamide] | – | –
19 | 15.9 | 49.4 | COc1ccc(C(=O)N2CC[C@]3(C2)C[C@H](NC(=O)NCc2ccc(Cl)cc2)C3)cc1 [Compound 165, 1-(4-chlorobenzyl)-3-((2s,4r)-6-(4-methoxybenzoyl)-6-azaspiro[3.4]octan-2-yl)urea] | – | –
20 | 15.1 | 46.9 | O=C(NCc1ccc(Cl)cc1)N[C@H]1C[C@]2(CCN(c3ncccn3)C2)C1 [Compound 170, 1-(4-chlorobenzyl)-3-((2s,4r)-6-(pyrimidin-2-yl)-6-azaspiro[3.4]octan-2-yl)urea] | – | –
21 | 14.2 | 42.8 | Cc1cnccc1C(=O)N1CC[C@]2(C1)C[C@@H](NC(=O)NCc1ccc(Cl)cc1)C2 [Compound 166, 1-(4-chlorobenzyl)-3-((2r,4s)-6-(3-methylisonicotinoyl)-6-azaspiro[3.4]octan-2-yl)urea] | – | –
22 | 10.0 | 37.9 | O=C(NCc1ccc(Cl)cc1)NC1CC2(C1)CC(NC(=O)c1cccnc1)C2 (stereo not shown) [Compound 184, N-(6-(3-(4-chlorobenzyl)ureido)spiro[3.3]heptan-2-yl)nicotinamide] | – | –
23 | 2.0 | 29.5 | COc1ccc(CNC(=O)NC2CC3(C2)CN(C(=O)c2cccc(C(C)(C)C)c2)C3)cc1 [Compound 174, 1-(2-(3-(tert-butyl)benzoyl)-2-azaspiro[3.3]heptan-6-yl)-3-(4-methoxybenzyl)urea] | – | –
24 | 12.4 | 27.9 | COc1ccc(C(=O)N2CC[C@]3(C2)C[C@@H](NC(=O)NCc2ccc(Cl)cc2)C3)cc1 [Compound 163, 1-(4-chlorobenzyl)-3-((2r,4s)-6-(4-methoxybenzoyl)-6-azaspiro[3.4]octan-2-yl)urea] | – | –
25 | 13.6 | 26.8 | Cc1cnccc1C(=O)NC1CC2(CC(NC(=O)NCc3ccc(Cl)cc3)C2)C1 (stereo not shown) [Compound 204, N-(6-(3-(4-chlorobenzyl)ureido)spiro[3.3]heptan-2-yl)-3-methylisonicotinamide] | – | –
26 | 17.3 | 24.9 | Cc1cc(N2CC[C@]3(C2)C[C@@H](NC(=O)NCc2ccc(Cl)cc2)C3)ccn1 [Compound 171, 1-(4-chlorobenzyl)-3-((2r,4s)-6-(2-methylpyridin-4-yl)-6-azaspiro[3.4]octan-2-yl)urea] | – | –
27 | 1.3 | 23.8 | COc1ccc(CNC(=O)NC2CC3(C2)CN(C(=O)c2cccc(N4CCOCC4)c2)C3)cc1 [Compound 191, 1-(4-methoxybenzyl)-3-(2-(3-morpholinobenzoyl)-2-azaspiro[3.3]heptan-6-yl)urea] | – | –
28 | 17.1 | 23.5 | CS(=O)(=O)c1cccc(C(=O)NC2CC3(CC(NC(=O)NCc4ccc(Cl)cc4)C3)C2)c1 (stereo not shown) [Compound 195, N-(6-(3-(4-chlorobenzyl)ureido)spiro[3.3]heptan-2-yl)-3-(methylsulfonyl)benzamide] | – | –
29 | 11.6 | 22 | O=C(NCc1ccc(Cl)cc1)NC1CC2(C1)CC(NC(=O)c1ccncc1)C2 (stereo not shown) [Compound 185, N-(6-(3-(4-chlorobenzyl)ureido)spiro[3.3]heptan-2-yl)isonicotinamide] | – | –
30 | 2.0 | 21.9 | COc1ccc(CNC(=O)NC2CC3(C2)CN(C(=O)c2cccc(OC)c2)C3)cc1 [Compound 176] | – | –
31 | 1.7 | 20.2 | COc1ccc(CNC(=O)NC2CC3(C2)CN(C(=O)c2cccc(C(C)C)c2)C3)cc1 [Compound 173, 1-(2-(3-isopropylbenzoyl)-2-azaspiro[3.3]heptan-6-yl)-3-(4-methoxybenzyl)urea] | – | –
32 | 17.1 | 18.2 | O=C(NCc1ccc(Cl)cc1)NC1CC2(C1)CC(NC(=O)c1cccc(O)c1)C2 (stereo not shown) [Compound 200, N-(6-(3-(4-chlorobenzyl)ureido)spiro[3.3]heptan-2-yl)-3-hydroxybenzamide] | – | –
33 | 3.6 | 14.6 | Cc1ccccc1C(=O)NC1CC2(CC(NC(=O)NCc3ccc(Cl)cc3)C2)C1 (stereo not shown) [Compound 193, N-(6-(3-(4-chlorobenzyl)ureido)spiro[3.3]heptan-2-yl)-2-methylbenzamide] | – | –
34 | 3.7 | 13.5 | CC(C)(C)OC(=O)N1CC2(CC(NC(=O)NCc3ccc(Cl)cc3)C2)C1 [Compound 197, tert-butyl 6-(3-(4-chlorobenzyl)ureido)-2-azaspiro[3.3]heptane-2-carboxylate] | – | –
35 | 7.1 | 9.3 | CC(C)c1cccc(C(=O)N2CC[C@]3(C2)C[C@@H](NC(=O)NCc2ccc(Cl)cc2)C3)c1 [Compound 169, 1-(4-chlorobenzyl)-3-((2r,4s)-6-(3-isopropylbenzoyl)-6-azaspiro[3.4]octan-2-yl)urea] | – | –
